The values below come from paper PMC7488488 (Acta Pharmaceutica Sinica. B, 2019).

Molecules are shown by their SMILES.

Experiment [1] has as its target MDM2 (Homo sapiens, UniProt Q00987). The experiment is described as follows: TR-FRET. In kind it is binding. The following applies: for inhibition at 1 µM: read-out: Inhibition rate at 1.0 μmol/L, MDM2. (In TR-FRET formats the signal depends on donor and acceptor labels being close together.)
For experiment [2], the system named is U87MG cells. Kind of experiment: MTT cell proliferation assay. Format: cell-based. Particulars: Homo sapiens, U-87 MG, 24 h, read-out: Anti-proliferative activity IC50, U87MG. For orientation: Tetrazolium assays rely on reduction of a dye to a coloured formazan, in cell work by metabolically active cells.
In experiment [3] the test system is U251 cells. Kind of experiment: MTT cell proliferation assay. Particulars: Homo sapiens, U-251, 24 h, read-out: Anti-proliferative activity IC50, U251. In kind it is cell-based.
In experiment [4] the test system is T98G cells. The experiment is described as follows: MTT cell proliferation assay. Format: cell-based. The following applies: Homo sapiens, T98G, 24 h, read-out: Anti-proliferative activity IC50, T98G.

MDM2, sequence (Q00987 whole entry): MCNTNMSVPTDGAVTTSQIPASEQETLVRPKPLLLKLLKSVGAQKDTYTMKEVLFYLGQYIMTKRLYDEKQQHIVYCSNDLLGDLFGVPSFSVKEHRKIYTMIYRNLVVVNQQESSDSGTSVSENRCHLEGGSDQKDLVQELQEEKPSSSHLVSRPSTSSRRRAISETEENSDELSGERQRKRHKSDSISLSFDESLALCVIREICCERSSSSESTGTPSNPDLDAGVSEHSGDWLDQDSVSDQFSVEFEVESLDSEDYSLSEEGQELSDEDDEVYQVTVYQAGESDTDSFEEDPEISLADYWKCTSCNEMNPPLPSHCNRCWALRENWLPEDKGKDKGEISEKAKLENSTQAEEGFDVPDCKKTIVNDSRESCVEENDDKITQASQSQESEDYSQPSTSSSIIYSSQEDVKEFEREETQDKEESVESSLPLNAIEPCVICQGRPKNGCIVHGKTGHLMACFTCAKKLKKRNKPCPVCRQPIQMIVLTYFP

The IC50 is the midpoint of a concentration-inhibition curve. For the molecule `O=C(c1ccc(F)cc1)[C@H]1Cc2c(cc([N+](=O)[O-])cc2[N+](=O)[O-])[C@H](O)[C@]12C(=O)Nc1ccccc12` [4m′, (1′S,3S,3′S)-3′-(4-Fluorobenzoyl)-1′-hydroxy-5′,7′-dinitro-3′,4′-dihydro-1′H-spiro[indoline-3,2′-naphthalen]-2-one], the inhibition at 1 µM in experiment [1] was 36.2%. Further, the IC50 in experiment [2], in experiment [3] and in experiment [4] was more than 50 µM in each case.
As to `COc1ccc(C(=O)[C@H]2Cc3c(cc([N+](=O)[O-])cc3[N+](=O)[O-])[C@H](O)[C@]23C(=O)Nc2ccccc23)cc1` [4p′, (1′S,3S,3′S)-1′-Hydroxy-3′-(4-methoxybenzoyl)-5′,7′-dinitro-3′,4′-dihydro-1′H-spiro[indoline-3,2′-naphthalen]-2-one], in experiment [1], the inhibition at 1 µM is 26.9%. The IC50 in experiment [2], in experiment [3] and in experiment [4] was more than 50 µM in each case.
Turning to `CCOC(=O)[C@H]1Cc2c(cc([N+](=O)[O-])cc2[N+](=O)[O-])[C@H](O)[C@]12C(=O)Nc1cccc(Br)c12` [4f′, Ethyl (1′S,3S,3′S)-4-bromo-1′-hydroxy-5′,7′-dinitro-2-oxo-3′,4′-dihydro-1′H-spiro[indoline-3,2′-naphthalene]-3′-carboxylate], the inhibition at 1 µM in experiment [1] is 54.8%. In addition, the half-maximal inhibitory concentration (IC50) was 69.8 µM in experiment [2], more than 50 µM in experiment [3] and more than 50 µM in experiment [4].
For `CCOC(=O)[C@H]1Cc2c(cc([N+](=O)[O-])cc2[N+](=O)[O-])[C@@H](O)[C@@]12C(=O)Nc1cccc(Br)c12` [4f, Ethyl (1′R,3R,3′S)-4-bromo-1′-hydroxy-5′,7′-dinitro-2-oxo-3′,4′-dihydro-1′H-spiro[indoline-3,2′-naphthalene]-3′-carboxylate], the inhibition at 1 µM in experiment [1] was determined as 66.9 ± 9.1%. For the same molecule, the half-maximal inhibitory concentration (IC50) turned out to be 20.7 ± 3.5 µM in experiment [2], 25.8 ± 4.2 µM in experiment [3] and 27.2 ± 3 µM in experiment [4].
For `O=C(c1ccccc1)[C@H]1Cc2c(cc([N+](=O)[O-])cc2[N+](=O)[O-])[C@@H](O)[C@@]12C(=O)Nc1ccccc12` [4k, (1′R,3R,3′S)-3′-Benzoyl-1′-hydroxy-5′,7′-dinitro-3′,4′-dihydro-1′H-spiro[indoline-3,2′-naphthalen]-2-one], in that order: 46.4 ± 4.9%, 38.7 ± 6.5 µM, 53.8 ± 9 µM and 43.7 ± 6.6 µM.
Taken in the same sequence, the figures for `O=C(c1ccc(F)cc1)[C@H]1Cc2c(cc([N+](=O)[O-])cc2[N+](=O)[O-])[C@@H](O)[C@@]12C(=O)Nc1ccccc12` [4m, (1′R,3R,3′S)-3′-(4-Fluorobenzoyl)-1′-hydroxy-5′,7′-dinitro-3′,4′-dihydro-1′H-spiro[indoline-3,2′-naphthalen]-2-one] were 44.6 ± 3.7%, 47.2 ± 3.8 µM, 39.5 ± 3.8 µM and 37.1 ± 3.2 µM.
Taken in the same sequence, the figures for `O=C(c1ccc(Br)cc1)[C@H]1Cc2c(cc([N+](=O)[O-])cc2[N+](=O)[O-])[C@H](O)[C@]12C(=O)Nc1ccccc12` [4o′, (1′S,3S,3′S)-3′-(4-Bromobenzoyl)-1′-hydroxy-5′,7′-dinitro-3′,4′-dihydro-1′H-spiro[indoline-3,2′-naphthalen]-2-one] were 29%, more than 50 µM, more than 50 µM and more than 50 µM.
On to `O=C(c1ccccc1F)[C@H]1Cc2c(cc([N+](=O)[O-])cc2[N+](=O)[O-])[C@H](O)[C@]12C(=O)Nc1ccccc12` [4l′, (1′S,3S,3′S)-3′-(2-Fluorobenzoyl)-1′-hydroxy-5′,7′-dinitro-3′,4′-dihydro-1′H-spiro[indoline-3,2′-naphthalen]-2-one], for which the inhibition at 1 µM in experiment [1] is 31.6%. Besides, the IC50 in experiment [2], in experiment [3] and in experiment [4] was more than 50 µM in each case.
`CCOC(=O)[C@H]1Cc2c(cc([N+](=O)[O-])cc2[N+](=O)[O-])[C@H](O)[C@]12C(=O)Nc1cc(Cl)ccc12` [4e′, Ethyl (1′S,3S,3′S)-6-chloro-1′-hydroxy-5′,7′-dinitro-2-oxo-3′,4′-dihydro-1′H-spiro[indoline-3,2′-naphthalene]-3′-carboxylate]: in experiment [1], the inhibition at 1 µM is 48.3%. Moreover, the half-maximal inhibitory concentration (IC50) in experiment [2], in experiment [3] and in experiment [4] was more than 50 µM throughout.
Consider `CCOC(=O)[C@H]1Cc2c(cc([N+](=O)[O-])cc2[N+](=O)[O-])[C@H](O)[C@]12C(=O)Nc1c(F)cccc12` [4c′, Ethyl (1′S,3S,3′S)-7-fluoro-1′-hydroxy-5′,7′-dinitro-2-oxo-3′,4′-dihydro-1′H-spiro[indoline-3,2′-naphthalene]-3′-carboxylate], for which, in experiment [1], the inhibition at 1 µM is 45.3%. Besides, the IC50 in experiment [2] is 59.9 µM; in experiment [3] it was more than 50 µM; in experiment [4], more than 50 µM.
For the molecule `CCOC(=O)[C@H]1Cc2c(cc([N+](=O)[O-])cc2[N+](=O)[O-])[C@H](O)[C@]12C(=O)Nc1ccc(C)cc12` [4j′, Ethyl (1′S,3S,3′S)-1′-hydroxy-5-methyl-5′,7′-dinitro-2-oxo-3′,4′-dihydro-1′H-spiro[indoline-3,2′-naphthalene]-3′-carboxylate], the inhibition at 1 µM in experiment [1] was 49.2%. Moreover, the IC50 in experiment [2], in experiment [3] and in experiment [4] was more than 50 µM in each case.
Take `CCOC(=O)[C@H]1Cc2c(cc([N+](=O)[O-])cc2[N+](=O)[O-])[C@@H](O)[C@@]12C(=O)Nc1ccc(C)cc12` [4j, Ethyl (1′R,3R,3′S)-1′-hydroxy-5-methyl-5′,7′-dinitro-2-oxo-3′,4′-dihydro-1′H-spiro[indoline-3,2′-naphthalene]-3′-carboxylate]: the inhibition at 1 µM in experiment [1] was 64.4 ± 7.2%. Besides, the figures for the IC50 in experiment [2], in experiment [3] and in experiment [4] were 31.1 ± 1.76 µM, 38.9 ± 4.5 µM and 39.3 ± 3.6 µM, respectively.
For `CCOC(=O)[C@H]1Cc2c(cc([N+](=O)[O-])cc2[N+](=O)[O-])[C@@H](O)[C@@]12C(=O)Nc1c(F)cccc12` [4c, Ethyl (1′R,3R,3′S)-7-fluoro-1′-hydroxy-5′,7′-dinitro-2-oxo-3′,4′-dihydro-1′H-spiro[indoline-3,2′-naphthalene]-3′-carboxylate], in that order: 76.5 ± 13.7%, 19.4 ± 2.3 µM, 34.3 ± 4 µM and 51.6 ± 6.2 µM.
For `O=C(c1ccccc1F)[C@H]1Cc2c(cc([N+](=O)[O-])cc2[N+](=O)[O-])[C@@H](O)[C@@]12C(=O)Nc1ccccc12` [4l, (1′R,3R,3′S)-3′-(2-Fluorobenzoyl)-1′-hydroxy-5′,7′-dinitro-3′,4′-dihydro-1′H-spiro[indoline-3,2′-naphthalen]-2-one], in that order: 47.2 ± 5.71%, 32.5 ± 4.7 µM, 38.7 ± 6.1 µM and 43.6 ± 4.8 µM.
Taken in the same sequence, the figures for `CCOC(=O)[C@H]1Cc2c(cc([N+](=O)[O-])cc2[N+](=O)[O-])[C@H](O)[C@]12C(=O)Nc1cc(Br)ccc12` [4h′, Ethyl (1′S,3S,3′S)-6-bromo-1′-hydroxy-5′,7′-dinitro-2-oxo-3′,4′-dihydro-1′H-spiro[indoline-3,2′-naphthalene]-3′-carboxylate] were 61.2%, 47.6 µM, more than 50 µM and more than 50 µM.
Turning to `CCOC(=O)[C@H]1Cc2c(cc([N+](=O)[O-])cc2[N+](=O)[O-])[C@@H](O)[C@@]12C(=O)Nc1ccc(Cl)cc12` [4d, Ethyl (1′R,3R,3′S)-5-chloro-1′-hydroxy-5′,7′-dinitro-2-oxo-3′,4′-dihydro-1′H-spiro[indoline-3,2′-naphthalene]-3′-carboxylate], the concentration for half-maximal inhibition (IC50) in experiment [1] turned out to be 0.52 ± 0.07 µM; in experiment [2] it was 8.3 ± 1.5 µM; in experiment [3] it was 17.8 ± 3.2 µM; in experiment [4] it was 21.6 ± 4.5 µM. Also, the inhibition at 1 µM in experiment [1] was 82.6 ± 8.4%.
On to `O=C(c1ccccc1)[C@H]1Cc2c(cc([N+](=O)[O-])cc2[N+](=O)[O-])[C@H](O)[C@]12C(=O)Nc1ccccc12` [4k′, (1′S,3S,3′S)-3′-Benzoyl-1′-hydroxy-5′,7′-dinitro-3′,4′-dihydro-1′H-spiro[indoline-3,2′-naphthalen]-2-one], for which the inhibition at 1 µM in experiment [1] was 35.4%. Also, the IC50 in experiment [2], in experiment [3] and in experiment [4] was more than 50 µM each time.
Regarding `O=C(c1ccc(Cl)c(Cl)c1)[C@H]1Cc2c(cc([N+](=O)[O-])cc2[N+](=O)[O-])[C@H](O)[C@]12C(=O)Nc1ccccc12` [4n′, (1′S,3S,3′S)-3′-(3,4-Dichlorobenzoyl)-1′-hydroxy-5′,7′-dinitro-3′,4′-dihydro-1′H-spiro[indoline-3,2′-naphthalen]-2-one], the inhibition at 1 µM in experiment [1] is 36.3%. The IC50 in experiment [2], in experiment [3] and in experiment [4] was more than 50 µM in each case.
With `CCOC(=O)[C@H]1Cc2c(cc([N+](=O)[O-])cc2[N+](=O)[O-])[C@H](O)[C@]12C(=O)Nc1ccc([N+](=O)[O-])cc12` [4i′, Ethyl (1′S,3S,3′S)-1′-hydroxy-5,5′,7′-trinitro-2-oxo-3′,4′-dihydro-1′H-spiro[indoline-3,2′-naphthalene]-3′-carboxylate], the inhibition at 1 µM in experiment [1] was 39.3%. Besides, the IC50 in experiment [2] is 47.9 µM; in experiment [3], more than 50 µM; in experiment [4], more than 50 µM.
For the molecule `CCOC(=O)[C@H]1Cc2c(cc([N+](=O)[O-])cc2[N+](=O)[O-])[C@@H](O)[C@@]12C(=O)Nc1ccc([N+](=O)[O-])cc12` [4i, Ethyl (1′R,3R,3′S)-1′-hydroxy-5,5′,7′-trinitro-2-oxo-3′,4′-dihydro-1′H-spiro[indoline-3,2′-naphthalene]-3′-carboxylate], in experiment [1], the inhibition at 1 µM is 47.7 ± 4.1%. The IC50 in experiment [2] was 25.6 ± 2.8 µM; in experiment [3], 36.2 ± 4.6 µM; in experiment [4], 41.2 ± 6.1 µM.
